Source: patent US12102685B2, “Immodulator peptides covalently modified with small molecules” (priority 2020, dated 2024)
Peptide text beside a SMILES is read from it.

Experiments:
[1] = Competition binding assay to metal-charged NTA-coated plates (x2B b)
Procedure: NTA-metal-affinity fluorescence assay was performed using 96-well NTA-metal-coated plates readily available from commercial sources such as Qiagen (Germantown, MD). NTA was charged with ferrous or ferric iron, zinc, copper, calcium, vanadium, ruthenium, cobalt, titanium, manganese or other metals. 400 ng of FITC-labeled immodulator peptide (or biotinylated immodulator peptide complexed to Alexa-488-labeled streptavidin) in PBS buffer was added per plate. After incubation at room temperature for 60 minutes, excess peptide was washed off and peptide was detected by measuring fluorescence (excitation 490 nm, emmission 525 nm) in a fluorometer. • (a) Using FITC-labeled IM3 peptide (1 ug/well) in the fluorescent binding assay: • EDTA-treated control: 2,251±1,186 • Ferrous iron: 170,441±11,264 (p<0.001)* • Copper: 13,644±5566 (p<0.05)* • Calcium: 48,822±11,990 (p<0.01)* • *p values are relative to EDTA-treated control • (b) Competition binding assay to ferrous iron, calcium, copper and zinc-charged NTA-coated plates using FITC-labeled IM3 peptide (0.5 uM) and 8× (4 uM) unlabelled competitor peptides IM3N1, IM3N2 (*all comparisons to PBS control are p<0.01); # fluorescent value of binding to […] was set at 100.

full-length huNur77 = molecular target: T1, full-length huNur77 (Homo sapiens, UniProt P22736); assay: Binding to full-length huNur77 (x3C); details: 333 ng/well labelled peptide
T1 construct: purchased Abcam, Cambridge, MA
T1 sequence (P22736 whole entry): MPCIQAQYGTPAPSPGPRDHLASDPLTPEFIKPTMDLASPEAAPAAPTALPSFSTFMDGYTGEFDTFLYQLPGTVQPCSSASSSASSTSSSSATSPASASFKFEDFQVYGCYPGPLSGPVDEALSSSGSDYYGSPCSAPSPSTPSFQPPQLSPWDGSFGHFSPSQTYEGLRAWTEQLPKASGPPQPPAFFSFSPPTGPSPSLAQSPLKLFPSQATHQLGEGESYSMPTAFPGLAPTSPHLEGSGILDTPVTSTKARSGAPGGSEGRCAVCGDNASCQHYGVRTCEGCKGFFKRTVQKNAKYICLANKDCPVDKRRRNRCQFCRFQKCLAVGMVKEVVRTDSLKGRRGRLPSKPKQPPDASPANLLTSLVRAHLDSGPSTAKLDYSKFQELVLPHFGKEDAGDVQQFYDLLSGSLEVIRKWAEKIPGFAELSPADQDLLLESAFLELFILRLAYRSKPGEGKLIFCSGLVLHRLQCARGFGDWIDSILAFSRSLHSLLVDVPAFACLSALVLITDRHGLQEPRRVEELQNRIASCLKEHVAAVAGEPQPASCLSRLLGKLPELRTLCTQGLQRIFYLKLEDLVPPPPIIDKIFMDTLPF
Procedure: 400 ng/well recombinant Nur77 (Abcam, Cambridge, MA) was adsorbed to wells of a 96-well plate for 90 minutes at RT, then blocked with 200 uL 1% BSA in PBS buffer overnight. Plate was washed and 333 ng/well Streptavidin-Alexa 488 conjugate (SA488)-labelled IM3, IM4 or no peptide was added. The plate was incubated for 60 min at room temperature, washed and counted in a standard fluorometer (excitation/emission 485/525 nm). Background (buffer alone) was subtracted.

[2] = molecular target: T2, DNA-binding domain (DBD) of RXR-alpha (Homo sapiens, UniProt P19793); assay: Binding to RXRa-DBD with or without ferric iron (x3B)
T2 construct: purchased Abcam, Cambridge, MA
T2 sequence (P19793 111-228): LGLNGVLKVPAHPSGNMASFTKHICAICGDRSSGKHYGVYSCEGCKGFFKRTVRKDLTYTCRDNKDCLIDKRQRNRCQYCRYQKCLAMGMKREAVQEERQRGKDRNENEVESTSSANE
Procedure: Experiment x3B. Binding of immodulator peptides to DNA-binding domain (DBD) of RXR-alpha, with or without ferric iron. 100 ng/well recombinant RXRa-DBD (Abcam, Cambridge, MA) was adsorbed to wells of a 96-well plate for 60 minutes at RT, then blocked with 200 uL 1% BSA in PBS buffer overnight. Plate was washed and 800 ng/well Streptavidin-Alexa 488 conjugate (SA488)-labelled IM peptide was added, with or without ferric chloride (5 uM) or 5-fold excess RXRa-DBD. The plate was incubated for 2 hours at room temperature, washed and counted in a standard fluorometer (excitation/emission 485/525 nm).

[3] = FITC-PI(4,5)P2 binding at pH5.2 with metals and cold PPI (x9D)
Procedure: To a streptavidin-coated 96-well plate, 400 ng peptide IM3 or IM5 were bound per well. Each well received 100 uL of sodium acetate buffer pH5.2 containing 500 uM EDTA, Calcium Chloride, Zinc Chloride or Ferric Chloride. Each well additionally contained 50 ng FITC-PI(4,5)P2 plus 2 ug of either cold PI(3,4)P2, PI(4,5)P2, PI(3,5)P2 or buffer. All assays were done in sextuplicate. After incubation at room temperature for 60 mins, wells were washed and counted in a fluorometer set at FITC excitation/emmission wavelengths.

[4] = Iron binding of separately labeled peptides (x2E e); details: each peptide labeled separately; IM3 = 100; ferric iron
How it was run: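 Fe3+-charged NTA-coated plates were incubated 60 min at room temperature with peptide complexed to Alexa-488-streptavidin in PBS, and fluorescence was read at 485/525 nm. Competition used 375 ng/well labeled IM3 (c) or IM3AVD (d) plus 10× unlabeled competitor, with no-competitor set to 100. Separately labeled peptides (e) were normalized to IM3 = 100.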

[5] = Iron-binding competition assay with labeled IM3 (x2E c); details: 375 ng/well labeled IM3 plus 10x unlabeled peptide; no competing peptide = 100
Procedure: Experiments were conducted by the procedure described above. Ferric iron-charged NTA-coated 96-well plates were used as described. 1 ug/well immodulator peptide complexed to Alexa-488-labeled streptavidin in PBS buffer was added (60 min at room temperature). The plate was washed and counted in a standard fluorometer (excitation/emission: 485/525 nm). The results (fluorescence) show improved iron-binding by the three peptides extended C-terminally by the AVD, (dA)VD, and FVS tripeptides. **p<0.01 vs IM3 control IM3: 200±29; IM4: 45±37**; IM5: 130±77; IM3AVD: 434±29**; IM3dAVD: 418±28**; IM3FVS: 371±33** • (c) Competition assay. The same procedure was used as the preceding experiment, except that 375 ng/well labeled IM3 peptide was used, plus 10× of the indicated unlabeled peptide. ‘No competing peptide’ control value was set to 100. *p<0.05 vs “no peptide” control Competing Peptide/Fluorescence • None: 100±38; IM4: 125±26; IM3: 63±27*; IM5: 40±14*; IM3AVD: 10±28* • (d) Competition assay. The same procedure was used as the preceding experiment, except that labeled IM3AVD peptide was used. **p<0.01 vs “no competing peptide” control • None: 100±9; IM4: 144±44; IM3: 35±16**; IM5: 30±19**; IM3AVD: 9±19** • (e) The same procedure was used as the preceding experiment, except that each peptide was labeled with Alexa-488-labeled streptavidin in PBS buffer and used separately. Binding to IM3 was set to =100. *p<0.05, **p<0.01 vs IM3 control. (Labeled Peptide/Fluorescence) IM1: 1.8±0.4**; IM2: 3.0±1.8**; IM3: 100.0±16.8; IM4: 7.2±1.7*; IM5: 86.7±6.4; IM6: 85.9±14.9; IM3AVD:137.7±11.8*; IM3dAVD:147.4±22.9*; IM3FVS: 101.5±10.5.

## N=C(N)NCCC[C@H](NC(=O)CNC(=O)[C@H](CCCCN)NC(=O)[C@H](CO)NC(=O)[C@@H]1CCCN1C(=O)[C@H](CCCNC(=N)N)NC(=O)[C@H](CS)NC(=O)[C@H](CCC(N)=O)NC(=O)[C@H](CCCCN)NC(=O)[C@H](CCCCN)NC(=O)[C@H](CCCCN)NC(=O)[C@H](Cc1ccc(O)cc1)NC(=O)[C@H](Cc1ccccc1)NC(=O)CNC(=O)[C@H](CCCCN)NC(=O)[C@@H](N)CCCCN)C(=O)N[C@@H](CCCCN)C(=O)N[C@@H](CCCNC(=N)N)C(=O)NCC(=O)N[C@@H](Cc1ccccc1)C(=O)N[C@@H](CS)C(=O)N[C@@H](Cc1c[nH]c2ccccc12)C(=O)O [IM3] (H-KKGFYKKKQCRPSKGRKRGFCW-OH; N-terminus and C-terminus assumed)
[1]; Calcium, set at 100
  FITC-IM3 fluorescence, no competitor (PBS): 100.0 ± 1.9
[1]; Copper, calcium = 100
  FITC-IM3 fluorescence, no competitor (PBS): 53.0 ± 0.6
[1]; Ferrous iron, calcium = 100
  FITC-IM3 fluorescence, no competitor (PBS): 85.6 ± 5.8
[1]; Zinc, calcium = 100
  FITC-IM3 fluorescence, no competitor (PBS): 85.9 ± 5.5
full-length huNur77; Nur77 400 ng/well
  fluorescence: 488 ± 38
full-length huNur77; no Nur77 adsorbed
  fluorescence: 59 ± 17
[2]; 100 ng/well RXRa-DBD, no FeCl3, no excess RXRa-DBD
  fluorescence: 687.3 ± 55.4
[2]; FeCl3 5 uM, 5X excess RXRa-DBD
  fluorescence: 837.0 ± 30.5
[2]; FeCl3 5 uM, no excess RXRa-DBD
  fluorescence: 1161.3 ± 78.5
[3]; Buffer, Calcium
  fluorescence, FITC-PI(4,5)P2 bound: 142 ± 29
[3]; Buffer, EDTA
  fluorescence, FITC-PI(4,5)P2 bound: 30 ± 22
[3]; Buffer, Ferric Iron
  fluorescence, FITC-PI(4,5)P2 bound: 772 ± 168
[3]; Buffer, Zinc
  fluorescence, FITC-PI(4,5)P2 bound: 138 ± 388
[3]; Cold PI(3,4)P2, Calcium
  fluorescence, FITC-PI(4,5)P2 bound: 48 ± 61
[3]; Cold PI(3,4)P2, EDTA
  fluorescence, FITC-PI(4,5)P2 bound: 26 ± 25
[3]; Cold PI(3,4)P2, Ferric Iron
  fluorescence, FITC-PI(4,5)P2 bound: 2,162 ± 269
[3]; Cold PI(3,4)P2, Zinc
  fluorescence, FITC-PI(4,5)P2 bound: 65 ± 16
[3]; Cold PI(3,5)P2, Calcium
  fluorescence, FITC-PI(4,5)P2 bound: 88 ± 22
[3]; Cold PI(3,5)P2, EDTA
  fluorescence, FITC-PI(4,5)P2 bound: 63 ± 26
[3]; Cold PI(3,5)P2, Ferric Iron
  fluorescence, FITC-PI(4,5)P2 bound: 2,036 ± 303
[3]; Cold PI(3,5)P2, Zinc
  fluorescence, FITC-PI(4,5)P2 bound: 118 ± 43
[3]; Cold PI(4,5)P2, Calcium
  fluorescence, FITC-PI(4,5)P2 bound: 32 ± 23
[3]; Cold PI(4,5)P2, EDTA
  fluorescence, FITC-PI(4,5)P2 bound: 10 ± 16
[3]; Cold PI(4,5)P2, Ferric Iron
  fluorescence, FITC-PI(4,5)P2 bound: 1,464 ± 320
[3]; Cold PI(4,5)P2, Zinc
  fluorescence, FITC-PI(4,5)P2 bound: 21 ± 22
[4]
  fluorescence of labeled peptide: 100.0±16.8
[5]
  fluorescence of labeled IM3 with competing peptide: 63±27
